Earlier results on 1 molecule are cited in US20100136119A1, “CONTROLLED-RELEASE PREPARATION CONTAINING CILOSTAZOL AND PROCESS FOR THE PREPARATION THEREOF” (AMOREPACIFIC CORPORATION, priority 2007, published 2010).

Where only a bound is given, the exact number is not on record here.

Regarding `O=C1CCc2cc(OCCCCc3nnnn3C3CCCCC3)ccc2N1` [Cilostazol], the solubility in water was no more than 1 µg/mL.
